# Data taken from patent publication US7592319B2, “Uses of DNA-PK” (Sloan-Kettering Institute for Cancer Research, priority 1998, dated 2009).
# Test system: cells derived from either Ku70 or Ku80 knock-out mice
# Assay: Survival experiments with Ku-deficient cells exposed to chemotherapeutic agents
# Assay type: cell-based, mouse
# Settings: FIG. 12
compound,measurement,value
COc1cccc2c1C(=O)c1c(O)c3c(c(O)c1C2=O)C[C@@](O)(C(=O)CO)C[C@@H]3O[C@H]1C[C@H](N)[C@H](O)[C@H](C)O1 [adriamycin],sensitivity of Ku70 or Ku80 knock-out mouse cells to the agent (survival),very sensitive
bleomycin,sensitivity of Ku70 or Ku80 knock-out mouse cells to the agent (survival),very sensitive
